In paper PMC3556473, “Absorption, metabolism and excretion of [^14C]pomalidomide in humans following oral administration” (Cancer Chemotherapy and Pharmacology, 2012):
“And” between values parts separate entries of the source, which are not always exact repeats. Equal entries are not always repeated.

How the values were obtained:
[1] = tested on: H929 MM cell; test: Inhibition of MM cell proliferation ([3H]-thymidine incorporation, 3-day culture); format: cell-based; details: Homo sapiens, NCI-H929
Description: (§1) Metabolites and hydrolysis products of pomalidomide were tested for pharmacological activity in the following three assay systems: (1) inhibition of MM cell proliferation, (2) enhancement of primary human T cell IL-2 production and (3) inhibition of TNF-α production by lipopolysaccharide (LPS)-stimulated human peripheral blood mononuclear cells (PBMC). For all three assay types, compounds were dissolved in 100 % dimethyl sulfoxide (DMSO) and diluted into complete cell culture medium, consisting of Roswell Park Memorial Institute (RPMI)-1640 plus penicillin, streptomycin and L-glutamine (Mediatech, Manassas, VA). The MM cell proliferation cell culture medium contained 10 % fetal bovine serum, while the primary human cell cultures contained 10 % human AB serum (Invitrogen, Brown Deer, WI). The final DMSO concentration in the cell culture media was 0.25 %.
(§2) The human MM cell line OPM-2 was obtained from DSMZ (Braunschweig, Germany), and human MM cell lines U266 B1 and NCI-H929 were obtained from ATCC (Manassas, VA). Inhibition of MM cell proliferation was assessed by the [^3H]-thymidine incorporation assay in a 3-day culture in the presence of compounds in complete medium, as previously described. Primary human T cells were isolated from PBMC by negative selection using the RosetteSep T Cell Enrichment Cocktail (STEMCELL Technologies, Tukwila, WA) according to the manufacturer’s procedures. Costimulation of T cell IL-2 production was measured in a 2-day culture of primary human T cells isolated from healthy donors stimulated with anti-CD3 antibody in the presence of compounds, as previously described. Inhibition of TNF-α production by LPS-stimulated human PBMC was measured in a 1-day culture in the presence of compound, as previously described.

[2] = tested on: U266 MM cell; test: as above; format: cell-based; details: Homo sapiens, U-266
Description: as §1, §2

[3] = tested on: OPM-2 MM cell; test: as above; format: cell-based; details: Homo sapiens
Description: as §1, §2

[4] = tested on: PBMC TNF-α production; test: Inhibition of TNF-α production by LPS-stimulated human PBMC (1-day culture); format: cell-based; details: 24 h
Description: as §1, §2

[5] = Metabolite profiling of urine and feces (% of dose excreted); format: in vivo, human; details: for % of dose excreted, Feces: pooled feces 0–96 h; for % of dose excreted, Feces / % of dose excreted, Urine: radiochromatography; for % of dose excreted, Urine: pooled urine 0–72 h
Description: For each subject, urine samples were pooled using an equal percentage by volume of the 0–6, 6–12, 12–24, 24–48 and 48–72 h samples. Pools of the 0–6, 6–12, 12–24, 24–48 and 48-72 h collections were also prepared across subjects and analyzed for metabolite profiling. Samples were mixed and centrifuged prior to the supernatants being transferred to fresh tubes for metabolite profiling analysis.
For each subject, fecal homogenates for metabolite profiling were pooled using an equal percentage by weight of the 0–24, 24–48, 48–72 and 72–96 h samples. Pools of the 0–24, 24-48, 48–72 and 72–96 h collections were also prepared across subjects and analyzed for metabolite profiling. An aliquot of each pool was extracted with acetonitrile; samples were mixed and centrifuged. The supernatant was removed and the pellets re-suspended with 0.1 % formic acid and extracted with acetonitrile. The combined supernatants were evaporated to dryness under a stream of nitrogen and the residue re-suspended in methanol:0.1 % formic acid in water (1:1). Samples were assayed for extraction recovery prior to metabolite profiling. A control fecal homogenate spiked with [^14C]pomalidomide was extracted in a similar manner to determine the extraction efficiency and stability of [^14C]pomalidomide.
(§3) HPLC analysis for metabolite profiling (HPLC Method 1) was performed using a Waters 2695 Alliance Separation Module (Waters Corp., Milford, MA) with the autosampler set to 4 °C. [^14C]Pomalidomide and metabolites were separated using an ACE C18 column (150 × 4.6 mm, 3 μm; Advanced Chromatography Technologies, Aberdeen, Scotland) equipped with an ACE C18 guard column (10 × 3 mm, 3 μm). The mobile phases used were 25 mM ammonium acetate in water: pH 5.5 with formic acid (mobile phase A) and methanol (mobile phase B). The column temperature was 30 °C, and the flow rate was 0.7 mL/min. The linear gradient was delivered as follows: 0–2 min 100 % A; 2–38 min to 64 % A; 38–44 min to 0 % A; 44–48 min hold at 0 % A; return to initial conditions over 2 min.
(§4) Radioactivity profiles for plasma and excreta were determined by collecting the column eluate into 96-well Deepwell LumaPlates™ at a rate of 0.25 min/fraction. The plates were dried and the radioactivity in each well determined using a PerkinElmer TopCount® NXT™ Microplate Scintillation Counter. HPLC radiochromatograms were reconstructed using LC-ARC data handling software.

[6] = tested on: T cell IL-2 production; test: Enhancement of primary human T cell IL-2 production (anti-CD3 stimulated, 2-day culture); format: cell-based; details: 48 h, anti-CD3 stimulated primary human T cells
Description: as §1, §2

[7] = Plasma pharmacokinetics of pomalidomide and circulating metabolites by radiochromatography (metabolite profiling); format: in vivo, human; parameters: AUC0–24 / AUC0−∞: concentration or dose not given beside the values; details: for Plasma (% AUC relative to TRA): AUC0–24 (unchanged drug or metabolite)/AUC0–24 (TRA) * 100 %; for Tmax / half-life: human, oral, 2 mg; for Tmax: median and range; for half-life: male, read-out: t ½ (converted); for AUC/AUCTRA: plasma exposure relative to total radioactivity
Description: Individual plasma samples collected from all subjects at 1, 2.5, 4, 6, 10, 12 and 24 h post-dose were analyzed for metabolite profiling. Samples were extracted with acetonitrile, the supernatant was removed, and the pellet was washed with 0.1 % formic acid in water and extracted again with acetonitrile. The combined supernatants were adjusted to 15 or 25 mL by adding acetonitrile then evaporated to dryness under a stream of nitrogen. The residues were re-suspended in 0.1 % formic acid in water, assayed for extraction recovery and analyzed for metabolite profiling. A control plasma sample spiked with [^14C]pomalidomide was extracted in a similar manner to determine the extraction efficiency and stability of [^14C]pomalidomide.
as §3, §4
For pomalidomide and metabolite concentrations in plasma based on metabolite profiling data, pharmacokinetic data were generated by non-compartmental analysis of plasma versus time profiles using WinNonlin (version 4.1, Enterprise Edition).

[8] = plasma, plasma, radiochromatography, geometric mean (%CV)
[9] = plasma, radiochromatography, geometric mean (%CV)

Row | SMILES | IC50 [1] [nM] | IC50 [2] [nM] | IC50 [3] [nM] | IC50 [4] [nM] | Percent dose excreted in human urine, Parent ([5]; pomalidomide, this study) [%] | Percent dose excreted in human urine, Total ([5]; pomalidomide, this study) [%] | % of dose excreted, Feces [5] [%] | % of dose excreted, Feces ([5]; listed as pomalidomide) [%] | % of dose excreted, Urine [5] [%] | dose excreted as unchanged drug (excreta) ([5]; urine + feces, % of the dose) [%] | EC50 [6] [nM] | Plasma (% AUC relative to TRA) [7] [%] | Tmax ([7]; plasma, radiochromatography) [h] | half-life [7, 8] [h] | AUC/AUCTRA [7] | AUC/AUCTRA ([7]; listed as pomalidomide) | AUC0–24 [7, 9] | AUC0−∞ [7, 9] | C max [7, 9] | t ½ [7, 9]
1 | Nc1cccc2c1C(=O)N(C1CCC(=O)NC1=O)C2=O (racemic) [Pomalidomide, (RS)-4-amino-2-(2,6-dioxo-piperidin-3-yl)-isoindoline-1,3-dione] | 35 | 28 | 38 | 3.1 | 2.2 | 72.8 | 7.7 | 8 | 2.2 | 10 | 22 | 69.6 | 2.5 | 9.4 | 70% and 69.6% | approximately 70% | 135 (33.4) ngEq*h/mL | 165 (43.2) ngEq*h/mL | 11.0 (22.5) ngEq/mL | 9.41 (25.0) h
2 | Nc1c(O)ccc2c1C(=O)N(C1CCC(=O)NC1=O)C2=O (stereo not shown) [Metabolite M17, 5-hydroxy pomalidomide] | > 1000 | > 1000 | > 1000 | > 10000 | – | – | 2.8 | – | 3.2 | – | > 10000 | 4.0 | 2.5 | 11 | 4.00% | – | 7.76 (24.8) ngEq*h/mL | 11.5 (36.9) ngEq*h/mL | 0.68 (33.3) ngEq/mL | –
